In patent publication US11266662B2, “Ganaxolone for use in prophylaxis and treatment of postpartum depression” (Marinus Pharmaceuticals, Inc., priority 2018, dated 2022):
Several values for one entry are separate records, joined by “and”; a condition that tells them apart may be missing. Equal values may be shown once.

Assay: Phase 2A study (Magnolia) in women with postpartum depression: ganaxolone plasma concentrations / pharmacokinetics
Conditions: for GNX Concentration: individual subjects, listed as GNX; for concentration at 12 h / concentration at 24 h / concentration at 48 h / concentration at 24 hr / concentration at 48 hr / concentration at 12 hr: female, human, plasma, intravenous, Mean average GNX Concentration
Description: Approximately 200 women with PPD 18 to 45 years of age are screened to randomize up to 100 subjects across up to 6 cohorts. Approximately 10-30 subjects are randomized into each cohort. Randomized subjects receive the investigational product (IP), ganaxolone or matching placebo in a 1:1 ratio. In Cohorts 1-5 the IP is administered intravenously over 60 hours. In Cohort 6 the dosing is initiated with a 6-hour intravenous (IV) infusion followed by oral dosing for 28 days plus 3-day taper.
Ganaxolone is infused at a rate of 4 mg/hr (16 ml/h of ganaxolone 0.25 mg/ml solution) for 48 hours and then, to minimize any risks for withdrawal or rebound of anxiety and depression symptoms, at a rate of 2 mg/hr for the next 12 hours. The infusion is stopped at 60 hours. Total of 9 subjects are dosed for this cohort.
Ganaxolone is infused at a rate of 8 mg/hr (16 ml/h of ganaxolone 0.5 mg/ml solution) for 48 hours and then at a rate of 4 mg/hr for the next 12 hours. This dose is approximately double the expected plasma exposure as compared to Cohort 1 at steady state (Cohort 2 expected plasma concentration ˜100-120 ng/mL). The infusion is stopped at 60 hours.
Twelve mg bolus of ganaxolone is initially given over 2 minutes followed by ganaxolone infusion at a rate of 12 mg/hr (24 ml/h of ganaxolone 0.5 mg/ml solution) for 48 hours. The rate is then reduced to 6 mg/hr for the next 12 hours, which is done to minimize any risks for withdrawal or rebound of anxiety and depression symptoms. The infusion is stopped at 60 hours.
In this cohort dosing is initiated with ganaxolone infusion at a rate of 20 mg/hr (40 ml/h of ganaxolone 0.5 mg/ml solution or matching placebo) for 6 hours followed by ganaxolone 900 mg (four 225 mg capsules per dose) or matching placebo capsules given orally at dinner time for 28 days followed by a 3-day taper (three, two, and one 225 mg capsule(s) per day, respectively).
This initial infusion is targeted to provide a fast onset of antidepressant activity by delivery of rapid plasma exposures to ganaxolone. Then, at dinner time of Day 1 the subjects take their first oral dose of ganaxolone 900 mg (four 225 mg capsules) or matching placebo (4 capsules). […] In previous studies, ganaxolone has been given up to a daily dose of 2000 mg, and at single doses of 1000 mg.
Six samples are collected for pharmacokinetic analysis in Cohorts 1-5 and 12 samples in Cohort 6. […] Seven samples are collected during the inpatient phase of Cohort 6 (including 6 samples on Day 1) followed by collection of 5 samples during the outpatient phase during the study visits for a total of 12 samples in Cohort 6.

For `CC(=O)[C@H]1CC[C@H]2[C@@H]3CC[C@H]4C[C@](C)(O)CC[C@]4(C)[C@H]3CC[C@]12C` [ganaxolone, 3α-hydroxy-3β-methyl-5α-pregnan-20-one], the “Targeted ganaxolone plasma concentration at steady state (Css)” value (Cohort 1, infusion rate 4 mg/hr, estimated target) was 52 ng/mL, the “GNX Concentration” value (Cohort 1: IV 4 mg/hr for 48 h then 2 mg/hr for 12 h, time 12 hr) was 61.6 ng/mL and the “GNX Concentration” value (Cohort 1: IV 4 mg/hr for 48 h then 2 mg/hr for 12 h, time 24 hr) was 59 ng/mL. The “Expected plasma concentration at steady state” value (Cohort 2, 8 mg/hr) was 100 to 120 ng/mL, the “GNX Concentration” value (Cohort 2: IV 8 mg/hr for 48 h then 4 mg/hr for 12 h, time 12 hr) was 107 ng/mL (2×) and 70.8 ng/mL and 111 ng/mL and 150 ng/mL and 115 ng/mL and 63.3 ng/mL and 69.3 ng/mL and 116 ng/mL and 49.5 ng/mL and 146 ng/mL and 183 ng/mL and 140 ng/mL and 71.5 ng/mL and 77.6 ng/mL and the “GNX Concentration” value (Cohort 2: IV 8 mg/hr for 48 h then 4 mg/hr for 12 h, time 24 hr) was 125 ng/mL and 92 ng/mL and 140 ng/mL and 45.5 ng/mL and 75.7 ng/mL and 106 ng/mL and 96.5 ng/mL and 1590* ng/mL and 142 ng/mL and 80.6 ng/mL and 175 ng/mL and 174 ng/mL and 162 ng/mL and 89.3 ng/mL and 26100* ng/mL. The “GNX Concentration” value (Cohort 2: IV 8 mg/hr for 48 h then 4 mg/hr for 12 h, time 48 hr) was 120 ng/mL (2×) and 136 ng/mL and 102 ng/mL and 197 ng/mL and 92 ng/mL and 77.8 ng/mL and 73.9 ng/mL and 118 ng/mL and 73.1 ng/mL and 131 ng/mL and 298 ng/mL and 132 ng/mL and 93.6 ng/mL and 7390* ng/mL, the “GNX Concentration” value (Cohort 2: IV 8 mg/hr for 48 h then 4 mg/hr for 12 h, time 72 hr) was 27.1 ng/mL and 26.4 ng/mL and 30.1 ng/mL and 28.2 ng/mL and 11.9 ng/mL and 23.9 ng/mL and 23.1 ng/mL and 26.8 ng/mL and 25.6 ng/mL and 19.4 ng/mL and 46.2 ng/mL and 26.9 ng/mL and 21.5 ng/mL and 18.1 ng/mL and 27.5 ng/mL and the “Expected peak plasma concentrations during initial 2-minute bolus” value (Cohort 3, 12 mg bolus over 2 minutes) was “up to 300 ng/ml”. For the same molecule, the “GNX Concentration” value (Cohort 3: 12 mg bolus, IV 12 mg/hr for 48 h then 6 mg/hr for 12 h, time 12 hr) was 137 ng/mL and 100 ng/mL and 106 ng/mL and 118 ng/mL and 138 ng/mL and 230 ng/mL and 126 ng/mL and 204 ng/mL and 61.1 ng/mL, the “GNX Concentration” value (Cohort 3: 12 mg bolus, IV 12 mg/hr for 48 h then 6 mg/hr for 12 h, time 24 hr) was 164 ng/mL and 125 ng/mL and 148 ng/mL and 163 ng/mL and 165 ng/mL and 254 ng/mL and 144 ng/mL and 250 ng/mL and 56 ng/mL and 16 ng/mL and the “GNX Concentration” value (Cohort 3: 12 mg bolus, IV 12 mg/hr for 48 h then 6 mg/hr for 12 h, time 48 hr) was 207 ng/mL and 146 ng/mL and 212 ng/mL and 66.4 ng/mL and 211 ng/mL and 213 ng/mL and 4160* ng/mL and 209 ng/mL and 85 ng/mL. The “GNX Concentration” value (Cohort 3: 12 mg bolus, IV 12 mg/hr for 48 h then 6 mg/hr for 12 h, time 72 hr) was 49.3 ng/mL and 26.1 ng/mL and 30 ng/mL and 46.2 ng/mL and 44.6 ng/mL and 42.8 ng/mL and 30.2 ng/mL and 31.7 ng/mL and 17.5 ng/mL and 15.2 ng/mL, the concentration at 12 h (86 μg/kg/hr, calculated for dose 86 μg/kg/hr, time 12 hr) was 81.4 ng/mL and the concentration at 24 h (86 μg/kg/hr, calculated for dose 86 μg/kg/hr, time 24 hr) was 91.2 ng/mL. It also gave a concentration at 48 h (86 μg/kg/hr, calculated for dose 86 μg/kg/hr, time 48 hr) of 100 ng/mL, a concentration at 12 h (150 μg/kg/hr, calculated for dose 150 μg/kg/hr, time 12 hr) of 142 ng/mL and a concentration at 24 hr (150 μg/kg/hr, calculated for dose 150 μg/kg/hr, time 24 hr) of 159 ng/mL. The concentration at 48 hr (150 μg/kg/hr, calculated for dose 150 μg/kg/hr, time 48 hr) was 175 ng/mL, the concentration at 12 hr (160 μg/kg/hr, calculated for dose 160 μg/kg/hr, time 12 hr) was 151 ng/mL and the concentration at 24 hr (160 μg/kg/hr, calculated for dose 160 μg/kg/hr, time 24 hr) was 170 ng/mL. For the same molecule, the concentration at 48 hr (160 μg/kg/hr, calculated for dose 160 μg/kg/hr, time 48 hr) was 187 ng/mL, the concentration at 12 hr (170 μg/kg/hr, calculated for dose 170 μg/kg/hr, time 12 hr) was 161 ng/mL and the concentration at 24 hr (170 μg/kg/hr, calculated for dose 170 μg/kg/hr, time 24 hr) was 180 ng/mL. For the same molecule, the concentration at 48 hr (170 μg/kg/hr, calculated for dose 170 μg/kg/hr, time 48 hr) was 199 ng/mL, the concentration at 12 h (180 μg/kg/hr, calculated for dose 180 μg/kg/hr, time 12 hr) was 170 ng/mL and the concentration at 24 h (180 μg/kg/hr, calculated for dose 180 μg/kg/hr, time 24 hr) was 191 ng/mL. The concentration at 48 h (180 μg/kg/hr, calculated for dose 180 μg/kg/hr, time 48 hr) was 210 ng/mL, the concentration at 12 h (190 μg/kg/hr, calculated for dose 190 μg/kg/hr, time 12 hr) was 180 ng/mL and the concentration at 24 h (190 μg/kg/hr, calculated for dose 190 μg/kg/hr, time 24 hr) was 202 ng/mL. It also gave a concentration at 48 h (190 μg/kg/hr, calculated for dose 190 μg/kg/hr, time 48 hr) of 222 ng/mL, a concentration at 12 h (200 μg/kg/hr, calculated for dose 200 μg/kg/hr, time 12 hr) of 189 ng/mL and a concentration at 24 h (200 μg/kg/hr, calculated for dose 200 μg/kg/hr, time 24 hr) of 212 ng/mL. It also gave a concentration at 48 h (200 μg/kg/hr, calculated for dose 200 μg/kg/hr, time 48 hr) of 234 ng/mL, a concentration at 12 h (210 μg/kg/hr, calculated for dose 210 μg/kg/hr, time 12 hr) of 199 ng/mL and a concentration at 24 h (210 μg/kg/hr, calculated for dose 210 μg/kg/hr, time 24 hr) of 223 ng/mL. The concentration at 48 h (210 μg/kg/hr, calculated for dose 210 μg/kg/hr, time 48 hr) was 246 ng/mL, the concentration at 12 h (220 μg/kg/hr, calculated for dose 220 μg/kg/hr, time 12 hr) was 208 ng/mL and the concentration at 24 h (220 μg/kg/hr, calculated for dose 220 μg/kg/hr, time 24 hr) was 233 ng/mL. For the same molecule, the concentration at 48 h (220 μg/kg/hr, calculated for dose 220 μg/kg/hr, time 48 hr) was 257 ng/mL, the concentration at 12 h (260 μg/kg/hr, calculated for dose 260 μg/kg/hr, time 12 hr) was 246 ng/mL and the concentration at 24 h (260 μg/kg/hr, calculated for dose 260 μg/kg/hr, time 24 hr) was 276 ng/mL.
